In patent publication US4104383A, “Derivatives of phenylpropenylamine” (C M Industries, priority 1973, dated 1978):
Converted amounts (≈) assume the structure as drawn. Read-outs that look alike come from different tables or passages of the source.

Key:
isolated rat duodenum = test: Antispasmodic activity, barium chloride-induced spasms of isolated rat duodenum; conditions: tyrode bath 37° C, barium chloride 100 μg/liter, compound added 3 minutes before, read-out: 50% effective concentration
Method: The antispasmodic activity of the compounds of the invention was also studied on the isolated rat duodenum, kept alive in an aerated tyrode bath at 37° C. Spasms were induced by the administration of barium chloride in an amount of 100 μg/liter. The compounds of the invention were added, at various concentrations, to the tyrode bath 3 minutes before the addition of the spasmogenic agent and the concentration determined of each which reduced by 50% the extent of the contraction caused by this agent.

mouse [1] = test: Exploration test (plank with holes, anxiolytic activity); assay type: in vivo; conditions: read-out: Exploration, median effective dose
Method: (Boissier J. R. and Simon P. "Archives Internationales de Pharmacodynamie",1964, 147, 372).
This test, using a plank with holes in it, makes it possible to measure objectively the anxiolytic activity of a compound by noting the decrease in the number of holes explored within a given time by a treated mouse in comparison with a control mouse. The animals are used in batches of 10 and are allowed 5 minutes for exploration.
(§1) The results obtained from the tests described above are summarized in Table II; the figures given in this Table show the value of the median effective dose for each test. The method of administration is indicated by "I.V." for intravenous administration, "I.P." for intraperitoneal administration and "P.O." for oral administration.

[2] = tested on: severely depressed hospital patients; test: Clinical evaluation in severely depressed hospital patients; assay type: in vivo, human
Method: A clinical evaluation of 933 CB was carried out using a sample of […] severely depressed hospital patients who were considering suicide or in some cases had attempted it. The sample contained 13 cases of nervous depression, 10 cases of reactional depression, seven cases of psychotic depression and three cases of severe melancholia. A clear favourable action on the depressive […] occurred in 21 of the patients. Several cases where a favourable response was noted had previously been treated with tricyclic antidepressants without success. […] The daily dose of the compound administered to each patient varied from 20 to 200 mg, the most favourable results being obtained with a dose of 40 to 60 mg.

[3] = tested on: adynamic and depressive states; test: Clinical use in adynamic and depressive states; assay type: in vivo; conditions: 2 to 10 compressed tablets of 100 mg daily or 1 to 5 injectible ampoules of 100 mg
Method: The compounds of the invention have been successfully used clinically to treat adynamic and depressive states, such as melancholia, reactive depressions and manic-depressive psychosis.
The compounds of the present invention are preferably formulated for oral administration or for injection. The compounds of the invention are also suitable for rectal administration. For oral administration, compressed tablets, each containing from 20 to 500 mg of active ingredient are recommended and for injection, ampoules each containing from 10 to 500 mg of active ingredient are recommended.

mouse [4] = test: Activity test (spontaneous motility, photoelectric cell cage); assay type: in vivo; conditions: read-out: Activity, median effective dose
Method: (Boissier J. R. and Simon P. "Archives Internationales de Pharmacodynamie",1965, 158, 212).
A mouse was placed in a Plexiglass cage crossed by a plurality of beams of light acting on photoelectric cells. When the mouse moved and thereby interrupted one of the beams, this caused an electrical pulse which was registered on a counter. The measurements were carried out on batches of six treated animals and six control animals for a period of 20 minutes.
as §1

Toxicity, LD50 in mice = conditions: mouse, in vivo
Source text: The toxicity of the compounds of the invention is generally low, as may be seen from Table IV, which gives the LD50 in mg/kg in mice for some of the compounds of the invention.

dorsal hippocampus = test: Electroencephalographic study, electrical stimulation of the dorsal hippocampus; assay type: in vivo, rabbit; conditions: conscious rabbits, intravenous; 6 volts, 30 cycles per second, 5 seconds
Source text: Electroencephalographic study
(Schmitt H. and Schmitt H., "Therapie", 1966, 3, 675-684)
Electrical stimulation of the dorsal hippocampus (6 volts; 30 cycles per second; 5 seconds, extent: 1.5 milliseconds) causes electrical discharges in the rabbit which continue for several seconds after cessation of electrical stimulation. These discharges last from 15 to 19 seconds in a normal animal. When the rabbit is under the influence of an antidepressant drug, these discharges last much longer. The experiment was carried out on batches of six conscious rabbits implanted by the technique of Monnier M. and Gangloff H. ("Atlas of Stereotaxic brain research on the conscious rabbit", Elsevier 1961), the products being administered intraveneously. The discharges were increased by 60% when the rabbits were treated with compound 933 CB and by 20 % when the rabbits were treated with compound 994 CB.

central nervous system [5] = test: Traction test; assay type: in vivo; conditions: mouse, read-out: Traction, median effective dose
Source text: (Courvoisier S., Ducrot R. and Julou L. "Psychotropic Drugs", Elsevier, 1957, p.373)
In this test, a mouse was hung by its front legs on a stretched wire. The animal will normally recover by itself, by gripping with its rear legs within 5 seconds.
as §1

mouse [6] = test: Reserpine test (reserpine-induced depression); assay type: in vivo; conditions: reserpine 5 mg/kg subcutaneously, read-out: Reserpine, median effective dose
Method: (Rubin B., Malone M. H., Waugh M. H. and Burke J. C., "Journal of Pharmacology and Experimental Therapeutics", 1957, 120, 125)
Reserpine, administered subcutaneously to a mouse in a dose of 5 mg/kg body weight, causes symptoms of severe depression, with absolute fixity, ptosis of the eyelids, hypothermia and catatonia; the simultaneous administration of a substance having anti-depressive properties leads to the progressive total or partial disappearance of this depressed state.
as §1

central nervous system [7] = test: Balancing test (rotating shaft); assay type: in vivo; conditions: mouse, read-out: Balancing, median effective dose
Method: (Boissier J. R., Dumont C. and Ratouis R. "Therapie", 1960, 15, 1170)
In this test, mice were placed for 1 minute on a horizontal wooden shaft which rotated steadily at 12 r.p.m. The mice will normally counteract this movement using positional and balancing reflexes; if, however, the central nervous system is affected, these reflexes are disturbed and a certain number of animals fall off.
as §1

[8] = 30 severely depressed hospital patients, 20 to 200 mg daily
[9] = po, orally, read-out: LD50 orally

Row | SMILES | EC50 (isolated rat duodenum) [ng/mL] | ED50 (mouse [1]; ip, I.P.) [mg/kg] | ED50 (mouse [1]; po, P.O.) [mg/kg] | patients with a clear favourable action on the depressive thymine [2, 8] [patients] | patients with improvement noted in less than a week [2, 8] [patients] | rapidity of action (in words) ([2]; depressed patients) | results on administration (in words) [3] | ED50 (mouse [4]; ip, I.P.) [mg/kg] | ED50 (mouse [4]; po, P.O.) [mg/kg] | LD50 (Toxicity, LD50 in mice; ip, I.P., read-out: LD50 I.P.) [mg/kg] | LD50 (Toxicity, LD50 in mice; [9]) [mg/kg] | Increase of hippocampal discharges (dorsal hippocampus) [%] | ED50 (central nervous system [5]; ip, I.P.) [mg/kg] | ED50 (central nervous system [5]; po, P.O.) [mg/kg] | ED50 (mouse [6]; ip, I.P.) [mg/kg] | ED50 (mouse [6]; po, P.O.) [mg/kg] | ED50 (central nervous system [7]; ip, I.P.) [mg/kg] | ED50 (central nervous system [7]; po, P.O.) [mg/kg]
1 | CCN(CC)CC=Cc1ccc(C2CCCCC2)c(Cl)c1 [933 CB, 3-chloro-4-cyclohexyl-1-(3-diethylamino-propen-1-yl)-benzene] | 0.6 to 1 (≈ 1.96 to 3.27 nM) | 25 | 25 | 21 | 13 | The action was rapid | Good results were obtained | 25 | 100 | 125 | > 1080 | 60 | 50 | 100 | 75 | 100 | 30 | 50
2 | CCN(CC)CCCc1ccc(C2CCCCC2)c(Cl)c1 [934 CB, 3-Chloro-4-cyclohexyl-1-(3-diethylamino-propyl)-benzene] | 0.6 (≈ 1.95 nM) | 20 |  |  |  |  |  | 30 |  | 125 to 250 | > 750 |  |  |  | 50 |  | 12.5 | 
3 | CCN(CC)CC=Cc1ccc(-c2ccccc2)cc1 [994 CB, 4-(3-diethylamino-propen-1-yl)-biphenyl] | 3 (≈ 11.3 nM) | 50 | 50 |  |  |  |  | 100 |  |  |  | 20 | 100 |  | 50 | 50 | 50 | 
4 | CCN(CC)CCCc1ccc(-c2ccccc2)cc1 [31001 CB, 4-(3-diethylamino-propyl)-biphenyl] | 1 (≈ 3.74 nM) |  |  |  |  |  |  | 50 |  |  |  |  | 100 |  |  |  | 100 | 
5 | CN(C)CC=Cc1ccc(C2CCCCC2)c(Cl)c1 [31004 CB, 3-chloro-4-cyclohexyl-1-(3-dimethylamino-propen-1-yl)-benzene] | 1 to 3 (≈ 3.6 to 10.8 nM) | 60 |  |  |  |  |  | 12.5 |  | 125 | > 750 |  | > 100 |  |  |  | 100 | 
6 | CN(C)CCCc1ccc(C2CCCCC2)c(Cl)c1 [31012 CB, 3-Chloro-4-cyclohexyl-1-(3-dimethylamino-propyl)-benzene] |  | 50 |  |  |  |  |  | 50 |  | 250 to 300 | > 750 |  | 100 |  |  |  | 100 | 
7 | Clc1cc(C=CCN2CCOCC2)ccc1C1CCCCC1 [31013 CB, 3-chloro-4-cyclohexyl-1-(3-morpholino-propen-1-yl)-benzene] |  | 50 |  |  |  |  |  | 50 |  | 500 | > 750 |  |  |  |  |  |  | 
8 | Clc1cc(C=CCN2CCCC2)ccc1C1CCCCC1 [31015 CB, 3-Chloro-4-cyclohexyl-1-(3-pyrrolidino-propen-1-yl)-benzene] | 1 to 3 (≈ 3.29 to 9.87 nM) | 25 |  |  |  |  |  | 20 |  | 62.5 | > 750 |  | 50 |  | 50 |  | 50 | 
9 | Clc1cc(CCCN2CCCC2)ccc1C1CCCCC1 [31016 CB, 3-Chloro-4-cyclohexyl-1-(3-pyrrolidino-propyl)-benzene] |  | 20 |  |  |  |  |  | 12.5 |  | 50 to 100 | > 750 |  |  |  | 50 |  |  | 
10 | CCN(CC)CC=Cc1ccc(C2CCCCC2)cc1 [31023 CB, 4-cyclohexyl-1-(3-diethylamino-propen-1-yl)-benzene] |  |  |  |  |  |  |  | 25 |  |  |  |  | 25 |  |  |  | 30 | 
11 | CCN(CC)CC=Cc1ccc(C2CCCCC2)c(F)c1 [Compound 31030, 3-fluoro-4-cyclohexyl-1-(3-diethylamino-propen-1-yl)-benzene] |  | ≥ 50 |  |  |  |  |  | 100 |  |  |  |  | 50 |  |  |  | 25 | 
